Columns and labels:
Wzb = biological target: T1, Wzb (Lacticaseibacillus rhamnosus, UniProt Q58Z13); test: p-nitrophenol release, absorbance […] nm; assay type: biochemical; conditions: 5 mM pNPP, 0.25 µM enzyme, 1.0 mM Co2+ (also Ni2+ or Mn2+), 92 mM Tris-HCl pH 7.5, 75 °C, 15 min
T1 sequence (Q58Z13 1-254): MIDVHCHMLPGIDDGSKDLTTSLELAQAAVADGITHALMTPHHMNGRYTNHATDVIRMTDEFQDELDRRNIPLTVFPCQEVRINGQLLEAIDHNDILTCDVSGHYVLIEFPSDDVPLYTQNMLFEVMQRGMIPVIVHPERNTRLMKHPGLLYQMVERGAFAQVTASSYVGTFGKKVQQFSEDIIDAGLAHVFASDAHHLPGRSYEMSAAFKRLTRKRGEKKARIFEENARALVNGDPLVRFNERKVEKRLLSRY

Cap8C = Cap8C (Staphylococcus aureus, UniProt P72369); test: p-nitrophenol release, absorbance […] nm; assay type: biochemical; conditions: 5 mM pNPP, 0.25 µM enzyme, 1.0 mM Co2+ (also Ni2+ or Mn2+), 92 mM Tris-HCl pH 7.5, 75 °C, 15 min
Sequence of Cap8C (P72369 entry or part of it): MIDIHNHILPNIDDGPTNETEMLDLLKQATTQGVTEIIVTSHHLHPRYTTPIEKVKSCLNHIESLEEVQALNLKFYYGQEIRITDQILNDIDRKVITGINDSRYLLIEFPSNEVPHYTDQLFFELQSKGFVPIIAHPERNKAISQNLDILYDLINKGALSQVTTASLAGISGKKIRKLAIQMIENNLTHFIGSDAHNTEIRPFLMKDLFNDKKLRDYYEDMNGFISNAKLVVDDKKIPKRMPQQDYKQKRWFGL

Structure (SMILES): O=[N+]([O-])c1ccc(OP(=O)(O)O)cc1 [p-nitrophenylphosphate]
- p-nitrophenol release, absorbance 405 nm (Wzb): Lactobacillus rhamnosus Wzb proteins were established to have phosphatase activity using pNPP as substrate
- p-nitrophenol release, absorbance 405 nm (Cap8C): Cap8C and Lactobacillus rhamnosus Wzb proteins were established to have phosphatase activity using pNPP

Reference: PMC10816263, “Thermophilic PHP Protein Tyrosine Phosphatases (Cap8C and Wzb) from Mesophilic Bacteria” (International Journal of Molecular Sciences, 2024)
